Patent publication US9695155B2, “Herbicidal substituted pyrimidinyloxy benzene compounds” (E. I. DU PONT DE NEMOURS AND COMPANY, priority 2013, dated 2017)

How the values were obtained:
yellow nutsedge = experiment: Test C postemergence; format: in vivo, Cyperus esculentus; details: for Plant response rating (0 to 100), Nutsedge, Yellow: 16 g ai/ha, 0 is no effect, 100 is complete control; for Nutsedge, Yellow plant response rating: 31 g ai/ha; for Nutsedge, Yellow plant response rating / Plant response rating, Nutsedge, Yellow: scale 0 to 100 (0 no effect, 100 complete control)
In short: (§1)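 Rated visually on 0–100 (100 = complete control) after 13–15 days under glass. Treatments went onto freshly seeded loam/sand soil or onto emerged plants at the 1- to 4-leaf stage, using a surfactant-containing solvent formulation.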

lambsquarters = experiment: Test C postemergence; format: in vivo, Chenopodium album; details: for Plant response rating (0 to 100), Lambsquarters: 16 g ai/ha, 0 is no effect, 100 is complete control; for Lambsquarters plant response rating: 31 g ai/ha; for Lambsquarters plant response rating / Plant response rating, Lambsquarters: scale 0 to 100 (0 no effect, 100 complete control)
In short: as §1

giant foxtail = experiment: Test C postemergence; format: in vivo, Setaria faberii; details: for Plant response rating (0 to 100), Foxtail, Giant: 16 g ai/ha, 0 is no effect, 100 is complete control; for Foxtail, Giant plant response rating: 31 g ai/ha; for Foxtail, Giant plant response rating / Plant response rating, Foxtail, Giant: scale 0 to 100 (0 no effect, 100 complete control)
In short: as §1

barnyardgrass [1] = experiment: Test B flooded paddy test; format: in vivo, Echinochloa crus-galli; details: Flood, 250 g ai/ha; 0 to 100 scale where 0 is no effect and 100 is complete control
In short: (§2)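 Post-emergence paddy-water application at the 2-leaf stage, with 3 cm flood kept for the whole test. Response was judged visually relative to controls after 13 to 15 greenhouse days, 0 indicating no effect and 100 complete control.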

barnyardgrass [2] = experiment: Test A postemergence; format: in vivo, Echinochloa crus-galli; details: 0 to 100 scale where 0 is no effect and 100 is complete control; for Barnyardgrass plant response rating: 125 g ai/ha; for Plant response rating, Barnyardgrass: 500 g ai/ha
In short: (§3)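 Injury scores run from 0, no effect, to 100, complete control, judged by eye against untreated plants roughly 10 days after treatment. Chemicals carried a surfactant in a non-phytotoxic solvent and went onto loam–sand soil preemergence or onto one- to two-leaf seedlings postemergence.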

rice = experiment: Test B flooded paddy test; format: in vivo, Oryza sativa; details: Flood, 250 g ai/ha; 0 to 100 scale where 0 is no effect and 100 is complete control
In short: as §2

pigweed = experiment: Test A postemergence; format: in vivo, Amaranthus retroflexus; details: 0 to 100 scale where 0 is no effect and 100 is complete control; for Pigweed plant response rating: 125 g ai/ha; for Plant response rating, Pigweed: 500 g ai/ha
In short: as §3

barnyardgrass [3] = experiment: Test C postemergence; format: in vivo, Echinochloa crus-galli; details: for Plant response rating (0 to 100), Barnyardgrass: 16 g ai/ha, 0 is no effect, 100 is complete control; for Barnyardgrass plant response rating: 31 g ai/ha, 13 to 15 days; for Barnyardgrass plant response rating / Plant response rating, Barnyardgrass: scale 0 to 100 (0 no effect, 100 complete control)
In short: as §1

wild oat = experiment: Test C postemergence; format: in vivo, Avena fatua; details: for Plant response rating (0 to 100), Oat, Wild: 16 g ai/ha, 0 is no effect, 100 is complete control; for Oat, Wild plant response rating: 31 g ai/ha; for Oat, Wild plant response rating / Plant response rating, Oat, Wild: scale 0 to 100 (0 no effect, 100 complete control)
In short: as §1

large (Lg) crabgrass [4] = experiment: Test A preemergence; format: in vivo, Digitaria sanguinalis; details: for Crabgrass, Large plant response rating: 500 g ai/ha
In short: as §3

morningglory = experiment: Test C postemergence; format: in vivo, Ipomoea coccinea; details: for Plant response rating (0 to 100), Morningglory: 16 g ai/ha, 0 is no effect, 100 is complete control; for Morningglory plant response rating: 31 g ai/ha; for Morningglory plant response rating / Plant response rating, Morningglory: scale 0 to 100 (0 no effect, 100 complete control)
In short: as §1

sedge, umbrella = experiment: Test B flooded paddy test; format: in vivo, Cyperus difformis; details: Flood, 250 g ai/ha; 0 to 100 scale where 0 is no effect and 100 is complete control
In short: as §2

chickweed = experiment: Test C postemergence; format: in vivo, Stellaria media; details: for Plant response rating (0 to 100), Chickweed: 16 g ai/ha, 0 is no effect, 100 is complete control; for Chickweed plant response rating: 31 g ai/ha; for Chickweed plant response rating / Plant response rating, Chickweed: scale 0 to 100 (0 no effect, 100 complete control)
In short: as §1

barnyardgrass [5] = experiment: Test A preemergence; format: in vivo, Echinochloa crus-galli; details: for Barnyardgrass plant response rating: 500 g ai/ha
In short: as §3

large (Lg) crabgrass [6] = experiment: Test C postemergence; format: in vivo, Digitaria sanguinalis; details: for Plant response rating (0 to 100), Crabgrass, Large: 16 g ai/ha, 0 is no effect, 100 is complete control; for Crabgrass, Large plant response rating: 31 g ai/ha; for Crabgrass, Large plant response rating / Plant response rating, Crabgrass, Large: scale 0 to 100 (0 no effect, 100 complete control)
In short: as §1

[7] = postemergence, visual rating, 13 to 15 days
[8] = 125 g ai/ha, postemergence, visual rating
[9] = Postemergence, 62 g ai/ha, 13 to 15 days
[10] = 0 to 100 scale where 0 is no effect and 100 is complete control
[11] = 125 g ai/ha, 0 to 100 scale where 0 is no effect and 100 is complete control

SMILES: FC(F)c1cnn(-c2c(Br)cccc2Oc2ncc(Cl)cn2)c1 [Compound 232]
- Plant response rating (0 to 100), Nutsedge, Yellow (yellow nutsedge; postemergence): 5
- Nutsedge, Yellow plant response rating (yellow nutsedge; [7]): 5
- Plant response rating, Nutsedge, Yellow (yellow nutsedge; [8]): 5
- Plant response rating, Nutsedge, Yellow (yellow nutsedge; [9]): 5
- Plant response rating (0 to 100), Lambsquarters (lambsquarters; postemergence): 55
- Lambsquarters plant response rating (lambsquarters; [7]): 60
- Plant response rating, Lambsquarters (lambsquarters; [8]): 75
- Plant response rating, Lambsquarters (lambsquarters; [9]): 70
- Plant response rating (0 to 100), Foxtail, Giant (giant foxtail; postemergence): 5
- Foxtail, Giant plant response rating (giant foxtail; [7]): 5
- Plant response rating, Foxtail, Giant (giant foxtail; [8]): 15
- Plant response rating, Foxtail, Giant (giant foxtail; [9]): 5
- Plant response rating, Barnyardgrass (barnyardgrass [1]): 10
- Barnyardgrass plant response rating (barnyardgrass [2]): 30
- Plant response rating, Barnyardgrass (barnyardgrass [2]): 90
- Plant response rating, Rice (rice): 35
- Pigweed plant response rating (pigweed): 100
- Plant response rating, Pigweed (pigweed): 100
- Plant response rating (0 to 100), Barnyardgrass (barnyardgrass [3]; postemergence): 10
- Barnyardgrass plant response rating (barnyardgrass [3]; postemergence, visual rating): 5
- Plant response rating, Barnyardgrass (barnyardgrass [3]; [8]): 20
- Plant response rating, Barnyardgrass (barnyardgrass [3]; Postemergence, 62 g ai/ha): 10
- Plant response rating (0 to 100), Oat, Wild (wild oat; postemergence): 0
- Oat, Wild plant response rating (wild oat; [7]): 0
- Plant response rating, Oat, Wild (wild oat; [8]): 20
- Plant response rating, Oat, Wild (wild oat; [9]): 5
- Crabgrass, Large plant response rating (0 to 100 scale) (large (Lg) crabgrass [4]; 125 g ai/ha): 90
- Crabgrass, Large plant response rating (large (Lg) crabgrass [4]; [10]): 100
- Plant response rating (0 to 100), Morningglory (morningglory; postemergence): 70
- Morningglory plant response rating (morningglory; [7]): 80
- Plant response rating, Morningglory (morningglory; [8]): 85
- Plant response rating, Morningglory (morningglory; [9]): 55
- Plant response rating, Sedge, Umbrella (sedge, umbrella): 80
- Plant response rating (0 to 100), Chickweed (chickweed; postemergence): 5
- Chickweed plant response rating (chickweed; [7]): 30
- Plant response rating, Chickweed (chickweed; [8]): 60
- Plant response rating, Chickweed (chickweed; [9]): 50
- Barnyardgrass plant response rating (0 to 100 scale, 0 is no effect, 100 is complete control) (barnyardgrass [5]; 125 g ai/ha): 60
- Barnyardgrass plant response rating (barnyardgrass [5]; [10]): 100
- Plant response rating (0 to 100), Crabgrass, Large (large (Lg) crabgrass [6]; postemergence): 5
- Crabgrass, Large plant response rating (large (Lg) crabgrass [6]; [7]): 5
- Plant response rating, Crabgrass, Large (large (Lg) crabgrass [6]; [8]): 5
- Plant response rating, Crabgrass, Large (large (Lg) crabgrass [6]; [9]): 5

SMILES: Fc1cnc(Oc2cccc(C(F)F)c2-n2cc(C(F)(F)F)cn2)nc1 [Compound 164]
- Plant response rating (0 to 100), Nutsedge, Yellow (yellow nutsedge; postemergence): 5
- Nutsedge, Yellow plant response rating (yellow nutsedge; [7]): 5
- Plant response rating, Nutsedge, Yellow (yellow nutsedge; [8]): 5
- Plant response rating, Nutsedge, Yellow (yellow nutsedge; Postemergence, 62 g ai/ha): 5
- Plant response rating (0 to 100), Lambsquarters (lambsquarters; postemergence): 15
- Lambsquarters plant response rating (lambsquarters; [7]): 25
- Plant response rating, Lambsquarters (lambsquarters; [8]): 65
- Plant response rating, Lambsquarters (lambsquarters; Postemergence, 62 g ai/ha): 40
- Plant response rating (0 to 100), Foxtail, Giant (giant foxtail; postemergence): 0
- Foxtail, Giant plant response rating (giant foxtail; [7]): 20
- Plant response rating, Foxtail, Giant (giant foxtail; [8]): 10
- Plant response rating, Foxtail, Giant (giant foxtail; Postemergence, 62 g ai/ha): 10
- Plant response rating, Barnyardgrass (barnyardgrass [1]): 20
- Barnyardgrass plant response rating (barnyardgrass [2]): 70
- Plant response rating, Barnyardgrass (barnyardgrass [2]): 100
- Plant response rating, Rice (rice): 0
- Pigweed plant response rating (pigweed): 100
- Plant response rating, Pigweed (pigweed): 100
- Plant response rating (0 to 100), Barnyardgrass (barnyardgrass [3]; postemergence): 0
- Barnyardgrass plant response rating (barnyardgrass [3]; postemergence, visual rating): 0
- Plant response rating, Barnyardgrass (barnyardgrass [3]; [8]): 5
- Plant response rating, Barnyardgrass (barnyardgrass [3]; Postemergence, 62 g ai/ha): 5
- Plant response rating (0 to 100), Oat, Wild (wild oat; postemergence): 0
- Oat, Wild plant response rating (wild oat; [7]): 5
- Plant response rating, Oat, Wild (wild oat; [8]): 15
- Plant response rating, Oat, Wild (wild oat; Postemergence, 62 g ai/ha): 5
- Plant response rating, Crabgrass, Large (large (Lg) crabgrass [4]; [11]): 100
- Crabgrass, Large plant response rating (large (Lg) crabgrass [4]; [10]): 100
- Plant response rating (0 to 100), Morningglory (morningglory; postemergence): 35
- Morningglory plant response rating (morningglory; [7]): 35
- Plant response rating, Morningglory (morningglory; [8]): 80
- Plant response rating, Morningglory (morningglory; Postemergence, 62 g ai/ha): 55
- Plant response rating, Sedge, Umbrella (sedge, umbrella): 90
- Plant response rating (0 to 100), Chickweed (chickweed; postemergence): 45
- Chickweed plant response rating (chickweed; [7]): 50
- Plant response rating, Chickweed (chickweed; [8]): 90
- Plant response rating, Chickweed (chickweed; Postemergence, 62 g ai/ha): 80
- Plant response rating, Barnyardgrass (barnyardgrass [5]; [11]): 90
- Barnyardgrass plant response rating (barnyardgrass [5]; [10]): 100
- Plant response rating (0 to 100), Crabgrass, Large (large (Lg) crabgrass [6]; postemergence): 5
- Crabgrass, Large plant response rating (large (Lg) crabgrass [6]; [7]): 5
- Plant response rating, Crabgrass, Large (large (Lg) crabgrass [6]; [8]): 10
- Plant response rating, Crabgrass, Large (large (Lg) crabgrass [6]; Postemergence, 62 g ai/ha): 5
